Source: ChEMBL document CHEMBL5291721, “A preclinical secondary pharmacology resource illuminates target-adverse drug reaction associations of marketed drugs” (Nat Commun, 2023)

What was measured:
Cannabinoid receptor 1 [1] = molecular target: T1, Cannabinoid receptor 1 (Homo sapiens, UniProt P21554); format: functional, cell-based
[2] = molecular target: T2, Alpha-1A adrenergic receptor (Homo sapiens, UniProt P35348)
T2 sequence (P35348 whole entry): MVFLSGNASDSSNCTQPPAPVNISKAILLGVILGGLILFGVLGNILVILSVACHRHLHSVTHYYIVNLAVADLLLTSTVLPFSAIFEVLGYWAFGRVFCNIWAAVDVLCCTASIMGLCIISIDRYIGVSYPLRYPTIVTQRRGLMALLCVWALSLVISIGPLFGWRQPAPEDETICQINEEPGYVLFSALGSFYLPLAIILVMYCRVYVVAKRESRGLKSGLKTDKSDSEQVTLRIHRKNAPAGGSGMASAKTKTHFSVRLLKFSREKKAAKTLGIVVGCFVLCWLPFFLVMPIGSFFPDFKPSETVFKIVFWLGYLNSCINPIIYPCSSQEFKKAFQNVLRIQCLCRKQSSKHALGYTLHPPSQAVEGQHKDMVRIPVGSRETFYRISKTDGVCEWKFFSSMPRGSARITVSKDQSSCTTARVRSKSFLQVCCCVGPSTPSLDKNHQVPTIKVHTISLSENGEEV

[3] = molecular target: T2, Alpha-1A adrenergic receptor; format: functional, cell-based
Cannabinoid receptor 1 [4] = molecular target: T1, Cannabinoid receptor 1
Cannabinoid receptor 1 [5] = molecular target: T1, Cannabinoid receptor 1; format: functional, cell-based; remark: listed apart in the source
[6] = molecular target: Beta-2 adrenergic receptor (Homo sapiens, UniProt P07550); format: functional, cell-based
Sequence of Beta-2 adrenergic receptor (P07550 whole entry): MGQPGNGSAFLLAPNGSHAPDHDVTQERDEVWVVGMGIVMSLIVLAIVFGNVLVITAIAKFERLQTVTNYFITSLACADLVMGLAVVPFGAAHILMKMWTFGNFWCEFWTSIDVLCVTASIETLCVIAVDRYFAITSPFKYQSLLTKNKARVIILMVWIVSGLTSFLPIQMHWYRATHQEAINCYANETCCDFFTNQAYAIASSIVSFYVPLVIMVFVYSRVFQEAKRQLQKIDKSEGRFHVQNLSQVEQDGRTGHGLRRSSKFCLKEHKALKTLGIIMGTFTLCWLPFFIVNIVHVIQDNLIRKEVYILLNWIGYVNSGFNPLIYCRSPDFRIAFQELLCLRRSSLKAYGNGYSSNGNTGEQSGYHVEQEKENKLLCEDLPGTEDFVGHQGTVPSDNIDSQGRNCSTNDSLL

[7] = molecular target: T3, 5-hydroxytryptamine receptor 1A (Homo sapiens, UniProt P08908); format: functional, cell-based
T3 sequence (P08908 whole entry): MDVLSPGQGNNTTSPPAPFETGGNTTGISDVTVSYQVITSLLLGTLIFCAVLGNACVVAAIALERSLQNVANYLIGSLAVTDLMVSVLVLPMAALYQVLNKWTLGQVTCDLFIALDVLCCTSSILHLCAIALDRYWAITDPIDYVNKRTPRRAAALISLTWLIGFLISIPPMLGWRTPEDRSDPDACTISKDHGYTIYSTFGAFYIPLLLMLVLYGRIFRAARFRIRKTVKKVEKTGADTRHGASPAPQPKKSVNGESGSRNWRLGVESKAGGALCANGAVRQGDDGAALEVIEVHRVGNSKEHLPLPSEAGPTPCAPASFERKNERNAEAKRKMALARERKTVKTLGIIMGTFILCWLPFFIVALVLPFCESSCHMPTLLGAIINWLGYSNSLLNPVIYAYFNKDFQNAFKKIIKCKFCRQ

Melanocortin receptor 4 = Melanocortin receptor 4 (Homo sapiens, UniProt P32245)
Sequence of Melanocortin receptor 4 (P32245 whole entry): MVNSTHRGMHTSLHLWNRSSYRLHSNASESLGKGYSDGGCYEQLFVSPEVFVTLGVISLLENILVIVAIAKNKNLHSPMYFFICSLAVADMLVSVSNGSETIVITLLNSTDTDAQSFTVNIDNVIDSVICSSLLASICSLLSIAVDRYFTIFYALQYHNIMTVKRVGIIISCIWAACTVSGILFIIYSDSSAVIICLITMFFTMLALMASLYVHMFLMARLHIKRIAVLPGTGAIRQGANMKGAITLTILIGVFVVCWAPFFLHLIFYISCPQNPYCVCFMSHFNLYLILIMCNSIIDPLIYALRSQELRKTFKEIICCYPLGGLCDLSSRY

Histamine H1 receptor = Histamine H1 receptor (Homo sapiens, UniProt P35367)
Sequence of Histamine H1 receptor (P35367 whole entry): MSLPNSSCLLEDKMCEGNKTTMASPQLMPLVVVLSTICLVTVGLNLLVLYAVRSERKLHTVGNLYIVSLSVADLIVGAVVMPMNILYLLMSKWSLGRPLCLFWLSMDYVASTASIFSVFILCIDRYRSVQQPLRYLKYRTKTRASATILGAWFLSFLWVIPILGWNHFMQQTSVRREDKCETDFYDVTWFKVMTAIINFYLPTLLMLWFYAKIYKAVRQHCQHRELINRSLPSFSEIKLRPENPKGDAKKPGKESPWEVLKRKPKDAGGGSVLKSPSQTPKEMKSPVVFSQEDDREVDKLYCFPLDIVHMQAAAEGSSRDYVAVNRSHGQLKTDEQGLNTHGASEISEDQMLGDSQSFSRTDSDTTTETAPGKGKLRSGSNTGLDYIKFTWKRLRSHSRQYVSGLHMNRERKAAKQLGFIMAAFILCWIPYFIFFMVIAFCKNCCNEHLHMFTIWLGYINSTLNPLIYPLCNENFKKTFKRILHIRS

[8] = molecular target: T4, Muscarinic acetylcholine receptor M1 (Homo sapiens, UniProt P11229); format: functional
T4 sequence (P11229 whole entry): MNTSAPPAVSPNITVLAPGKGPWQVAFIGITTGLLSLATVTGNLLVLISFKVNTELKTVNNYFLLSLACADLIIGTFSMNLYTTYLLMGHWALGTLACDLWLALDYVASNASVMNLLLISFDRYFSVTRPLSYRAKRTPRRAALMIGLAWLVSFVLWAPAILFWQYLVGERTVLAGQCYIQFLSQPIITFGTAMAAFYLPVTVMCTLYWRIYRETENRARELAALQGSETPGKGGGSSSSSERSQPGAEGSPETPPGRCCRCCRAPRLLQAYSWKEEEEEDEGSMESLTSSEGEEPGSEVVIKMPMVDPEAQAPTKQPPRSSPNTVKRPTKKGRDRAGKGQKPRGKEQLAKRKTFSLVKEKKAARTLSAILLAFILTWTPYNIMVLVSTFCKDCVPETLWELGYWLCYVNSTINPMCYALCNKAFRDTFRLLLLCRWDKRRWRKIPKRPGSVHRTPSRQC

[9] = molecular target: T5, Alpha-2B adrenergic receptor (Homo sapiens, UniProt P18089)
T5 sequence (P18089 whole entry): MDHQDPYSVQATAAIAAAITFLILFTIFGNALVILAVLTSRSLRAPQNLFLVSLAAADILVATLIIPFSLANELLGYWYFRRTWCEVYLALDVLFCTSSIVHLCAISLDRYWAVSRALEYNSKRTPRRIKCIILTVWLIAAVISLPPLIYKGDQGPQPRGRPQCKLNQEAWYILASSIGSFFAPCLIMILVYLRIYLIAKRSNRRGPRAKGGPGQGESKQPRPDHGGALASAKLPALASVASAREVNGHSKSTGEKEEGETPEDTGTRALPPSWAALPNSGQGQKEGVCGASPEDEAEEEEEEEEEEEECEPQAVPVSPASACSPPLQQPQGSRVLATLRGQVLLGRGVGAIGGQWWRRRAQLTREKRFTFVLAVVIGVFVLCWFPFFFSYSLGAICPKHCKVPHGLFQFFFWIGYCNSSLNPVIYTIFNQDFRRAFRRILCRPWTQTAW

Mu-type opioid receptor = Mu-type opioid receptor (Homo sapiens, UniProt P35372); assay: biochemical; format: functional
Sequence of Mu-type opioid receptor (P35372 whole entry): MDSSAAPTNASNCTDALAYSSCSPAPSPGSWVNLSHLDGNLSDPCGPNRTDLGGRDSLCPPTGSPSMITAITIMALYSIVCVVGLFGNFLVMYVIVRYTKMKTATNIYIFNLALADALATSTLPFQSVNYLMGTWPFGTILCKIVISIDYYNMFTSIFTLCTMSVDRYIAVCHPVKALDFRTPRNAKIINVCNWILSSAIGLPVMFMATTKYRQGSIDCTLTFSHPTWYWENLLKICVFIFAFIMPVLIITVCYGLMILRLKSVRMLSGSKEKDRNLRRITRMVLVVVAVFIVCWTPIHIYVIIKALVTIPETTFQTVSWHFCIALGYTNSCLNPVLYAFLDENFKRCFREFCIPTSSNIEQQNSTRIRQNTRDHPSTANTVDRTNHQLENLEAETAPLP
Further: assay procedure not described here.

T1 sequence (P21554 whole entry): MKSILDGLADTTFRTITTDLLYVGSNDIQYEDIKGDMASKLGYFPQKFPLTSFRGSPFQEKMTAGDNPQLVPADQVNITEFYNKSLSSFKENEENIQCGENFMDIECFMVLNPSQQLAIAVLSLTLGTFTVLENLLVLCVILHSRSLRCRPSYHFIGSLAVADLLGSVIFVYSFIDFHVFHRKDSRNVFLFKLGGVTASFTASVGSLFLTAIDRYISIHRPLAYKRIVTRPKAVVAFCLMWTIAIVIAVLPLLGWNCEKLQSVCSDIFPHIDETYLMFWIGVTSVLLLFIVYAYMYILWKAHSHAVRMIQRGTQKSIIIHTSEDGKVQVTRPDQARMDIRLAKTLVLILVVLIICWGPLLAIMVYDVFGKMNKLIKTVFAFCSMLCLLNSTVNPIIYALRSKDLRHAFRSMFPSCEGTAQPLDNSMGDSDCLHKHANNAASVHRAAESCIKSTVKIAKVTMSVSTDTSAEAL

Q: Which results are given for Cc1ccnc2c1NC(=O)c1cccnc1N2C1CC1 [NEVIRAPINE]?
A: AC50 (Cannabinoid receptor 1 [1]): > 30 µM; AC50 [2]: > 10 µM; AC50 [3]: > 30 µM; AC50 (Cannabinoid receptor 1 [4]): > 10 µM; AC50 (Cannabinoid receptor 1 [5]): > 30 µM; AC50 [6]: > 30 µM; AC50 [7]: > 10 µM; AC50 (Melanocortin receptor 4): > 30 µM

Q: Which AC50 (Histamine H1 receptor) does the source give for O=C(NCCO[N+](=O)[O-])c1cccnc1 [NICORANDIL] here?
A: > 30 µM

Q: And the AC50 (Cannabinoid receptor 1 [1])?
A: > 30 µM

Q: And the AC50 [3]?
A: > 30 µM

Q: What about the AC50 [8] of the same compound?
A: > 30 µM

Q: What about the AC50 (Cannabinoid receptor 1 [5]) of the same compound?
A: > 30 µM

Q: And the AC50 [9]?
A: > 30 µM

Q: And the AC50 [6]?
A: > 30 µM

Q: And the AC50 (Mu-type opioid receptor)?
A: > 30 µM

Q: Which results are given for CO[C@H]1C[C@H](O[C@H]2CC[C@@]3(C)[C@H](CC[C@@H]4[C@@H]3CC[C@]3(C)[C@@H](C5=CC(=O)OC5)[C@@H](OC(C)=O)C[C@]43O)C2)O[C@@H](C)[C@@H]1O [OLEANDRIN]?
A: AC50 (Histamine H1 receptor): > 30 µM; AC50 (Cannabinoid receptor 1 [1]): > 30 µM; AC50 [3]: > 30 µM; AC50 [8]: > 30 µM; AC50 (Cannabinoid receptor 1 [5]): > 30 µM; AC50 [9]: > 30 µM; AC50 [6]: > 30 µM; AC50 [7]: > 30 µM

Q: How did the AC50 (Histamine H1 receptor) turn out when O=c1[nH]c2ccccc2n1CCCN1CCN(C(c2ccccc2)c2ccccc2)CC1 [OXATOMIDE] was run?
A: 0.034 µM

Q: And the AC50 (Cannabinoid receptor 1 [1])?
A: > 30 µM

Q: And the AC50 [3]?
A: 4.1 µM

Q: What about the AC50 [8] of the same compound?
A: 5.8 µM

Q: And the AC50 (Cannabinoid receptor 1 [5])?
A: > 30 µM

Q: And the AC50 [9]?
A: > 30 µM

Q: And the AC50 [6]?
A: > 30 µM

Q: And the AC50 (Mu-type opioid receptor)?
A: 1.8 µM

Q: For COc1cc2[nH]c(C)c(CCN3CCN(c4ccccc4)CC3)c2cc1OC [OXYPERTINE], which AC50 (Histamine H1 receptor) is on record?
A: 1.9 µM

Q: What about the AC50 (Cannabinoid receptor 1 [1]) of the same compound?
A: > 30 µM

Q: And the AC50 [8]?
A: > 30 µM

Q: And the AC50 (Cannabinoid receptor 1 [5])?
A: > 30 µM

Q: And the AC50 [9]?
A: 0.25 µM

Q: And the AC50 [6]?
A: > 30 µM

Q: What about the AC50 (Mu-type opioid receptor) of the same compound?
A: > 30 µM

Q: What about the AC50 [7] of the same compound?
A: 0.15 µM

Q: COc1cc(C(=O)OCc2cccc(COC(=O)c3cc(OC)c(OC)c(OC)c3)n2)cc(OC)c1OC [PIROZADIL] was tested. Which AC50 (Histamine H1 receptor) did it give?
A: > 30 µM

Q: And the AC50 (Cannabinoid receptor 1 [1])?
A: > 30 µM

Q: What about the AC50 [8] of the same compound?
A: > 30 µM

Q: And the AC50 (Cannabinoid receptor 1 [5])?
A: > 30 µM

Q: What about the AC50 [9] of the same compound?
A: > 30 µM

Q: And the AC50 [6]?
A: > 30 µM

Q: And the AC50 (Mu-type opioid receptor)?
A: > 30 µM

Q: And the AC50 [7]?
A: > 30 µM

Q: CCC(=O)O[C@](Cc1ccccc1)(c1ccccc1)[C@H](C)CN(C)C [PROPOXYPHENE] was tested. Which AC50 (Histamine H1 receptor) did it give?
A: > 10 µM

Q: What about the AC50 (Cannabinoid receptor 1 [1]) of the same compound?
A: > 30 µM

Q: What about the AC50 [2] of the same compound?
A: 8.05 µM

Q: And the AC50 [3]?
A: > 30 µM

Q: What about the AC50 [8] of the same compound?
A: > 10 µM

Q: What about the AC50 (Cannabinoid receptor 1 [4]) of the same compound?
A: > 10 µM

Q: And the AC50 (Cannabinoid receptor 1 [5])?
A: > 30 µM

Q: And the AC50 [9]?
A: > 10 µM

Q: What about the AC50 [6] of the same compound?
A: > 30 µM

Q: What about the AC50 (Mu-type opioid receptor) of the same compound?
A: 0.17 µM

Q: And the AC50 [7]?
A: > 10 µM

Q: And the AC50 (Melanocortin receptor 4)?
A: > 30 µM

Q: For CCN1CCCC1CNC(=O)c1cc(S(=O)(=O)CC)ccc1OC (centres undefined) [SULTOPRIDE], which AC50 (Histamine H1 receptor) is on record?
A: > 30 µM

Q: And the AC50 (Cannabinoid receptor 1 [1])?
A: > 30 µM

Q: And the AC50 [8]?
A: > 30 µM

Q: And the AC50 (Cannabinoid receptor 1 [5])?
A: > 30 µM

Q: And the AC50 [9]?
A: 10 µM

Q: And the AC50 [6]?
A: > 30 µM

Q: And the AC50 (Mu-type opioid receptor)?
A: > 30 µM

Q: And the AC50 [7]?
A: > 30 µM

Q: For C=CCN1CCc2nc(N)sc2CC1 [TALIPEXOLE], which AC50 (Histamine H1 receptor) is on record?
A: 28 µM

Q: And the AC50 (Cannabinoid receptor 1 [1])?
A: > 30 µM

Q: And the AC50 [2]?
A: > 30 µM

Q: And the AC50 [8]?
A: > 30 µM

Q: And the AC50 (Cannabinoid receptor 1 [5])?
A: > 30 µM

Q: And the AC50 [6]?
A: > 30 µM

Q: What about the AC50 (Mu-type opioid receptor) of the same compound?
A: > 30 µM

Q: What about the AC50 [7] of the same compound?
A: > 30 µM

Q: What does the source list for CCOC(=O)c1ccc(C#Cc2ccc3c(c2)C(C)(C)CCS3)nc1 [TAZAROTENE]?
A: AC50 (Histamine H1 receptor): > 10 µM; AC50 [2]: > 10 µM; AC50 [3]: > 30 µM; AC50 [8]: > 10 µM; AC50 (Cannabinoid receptor 1 [4]): > 10 µM; AC50 [9]: > 10 µM; AC50 [6]: > 30 µM; AC50 (Melanocortin receptor 4): > 30 µM
